Laboratory results published in patent US20080269526A1, “METHODS OF MAKING AN […]” (SAIC […], IP B.V., priority 2004, published 2008).

Assay: Solubility of K Rimar in water
Settings: 20° C. (RT)
From the text: The solubility of the potassium salt of perfluorobutanesulfonic acid, K Rimar, is described in Table 2.

## O=S(=O)([O-])C(F)(F)C(F)(F)C(F)(F)C(F)(F)F.[K+] [K Rimar, Perfluorobutane sulfonate, potassium salt]
  Concentration at which K Rimar is soluble: less than 0.5 g
